Measurements: patent US10138207B2, “Benzomorphan analogs and the use thereof” (priority 2012, dated 2018)
Read-outs that look alike come from different tables or passages of the source.

Key:
μ-opioid receptor [1] = molecular target: T1, μ-opioid receptor (Homo sapiens, UniProt P35372); test: μ-opioid receptor [35S]GTPγS functional assay, U-2 OS cells; type: biochemical; design: expressed in transfected cells; host or cells: U-2 OS; conditions: for Emax: read-out: GTPγS μ Emax
κ opioid receptor [2] = molecular target: T2, κ opioid receptor (Homo sapiens, UniProt P41145); test: biochemical; type: binding; design: expressed in transfected cells; host or cells: HEK 293 (in-house membrane prep); conditions: HEK-293 or CHO cells
μ-opioid receptor [3] = molecular target: T1, μ-opioid receptor; test: μ-opioid receptor [35S]GTPγS functional assay, HEK-293 or CHO cells; conditions: for Emax: read-out: GTPγS μ Emax
κ opioid receptor [4] = molecular target: T2, κ opioid receptor; test: κ-opioid receptor [35S]GTPγS functional assay, HEK-293 or CHO cells; type: biochemical; design: expressed in transfected cells; host or cells: U-2 OS (in-house membranes); conditions: for Emax: relative to U69,593
Description: Membranes from recombinant HEK-293 cells, CHO or U-2 OS cells expressing the recombinant human κ opioid receptor (κ) were prepared by lysing cells in ice cold hypotonic buffer (2.5 mM MgCl2, 50 mM HEPES, pH 7.4) (10 mL/10 cm dish) followed by homogenization with a tissue grinder/Teflon pestle. Membranes from a cell line naturally expressing kappa opioid receptors can also be used. Membranes were collected by centrifugation at 30,000×g for 15 min at 4° C. and pellets were resuspended in hypotonic buffer to a final concentration of 1-3 mg/mL. Protein concentrations were determined using the BioRad protein assay reagent with bovine serum albumen as standard. Aliquots of κ receptor membranes were stored at −80° C.
Plates were incubated for 30 min at a temperature of about 25° C. with shaking.

[5] = U-2 OS cells, read-out: GTPγS μ EC50
[6] = U-2 OS cells, relative to DAMGO
[7] = HEK-293 or CHO cells, bound in μM, read-out: GTPγS κ EC50
[8] = HEK-293 or CHO cells, read-out: GTPγS κ EC50

T2 sequence (P41145 whole entry): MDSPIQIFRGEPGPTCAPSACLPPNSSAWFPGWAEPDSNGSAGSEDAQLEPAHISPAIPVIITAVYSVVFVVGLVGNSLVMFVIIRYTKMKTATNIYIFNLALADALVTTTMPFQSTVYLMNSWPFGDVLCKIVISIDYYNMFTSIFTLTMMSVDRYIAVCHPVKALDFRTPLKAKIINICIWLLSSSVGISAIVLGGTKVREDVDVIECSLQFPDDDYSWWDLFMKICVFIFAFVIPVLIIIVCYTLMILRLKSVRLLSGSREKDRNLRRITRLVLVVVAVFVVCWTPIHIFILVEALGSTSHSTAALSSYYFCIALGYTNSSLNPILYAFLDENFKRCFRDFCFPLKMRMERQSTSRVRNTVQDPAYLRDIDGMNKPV
T1 sequence (P35372 whole entry, species assumed): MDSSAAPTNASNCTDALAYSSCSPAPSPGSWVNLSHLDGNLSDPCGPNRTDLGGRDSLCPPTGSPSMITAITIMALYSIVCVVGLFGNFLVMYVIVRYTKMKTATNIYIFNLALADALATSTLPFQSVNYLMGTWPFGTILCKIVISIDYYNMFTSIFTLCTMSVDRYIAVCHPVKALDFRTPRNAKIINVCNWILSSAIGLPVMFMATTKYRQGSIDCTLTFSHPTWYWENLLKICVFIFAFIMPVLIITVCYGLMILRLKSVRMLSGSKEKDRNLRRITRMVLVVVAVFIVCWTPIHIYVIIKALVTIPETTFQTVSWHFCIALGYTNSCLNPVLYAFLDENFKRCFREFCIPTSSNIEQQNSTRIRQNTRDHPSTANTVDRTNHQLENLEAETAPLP

| SMILES | EC50 (μ-opioid receptor [1]; [5]) [µM] | Emax (μ-opioid receptor [1]; [6]) [%] | Ki (κ opioid receptor [2]) [nM] | EC50 (μ-opioid receptor [3]) [nM] | Emax (μ-opioid receptor [3]) [%] | EC50 (κ opioid receptor [4]; [7]) [µM] | EC50 (κ opioid receptor [4]; [8]) [µM] | Emax (κ opioid receptor [4]; HEK-293 or CHO cells) [%] | EC50 (μ-opioid receptor [1]; U-2 OS cells, bound in μM, read-out: GTPγS μ EC50) [µM] | EC50 (κ opioid receptor [4]) [µM] | EC50 (μ-opioid receptor [1]; GTPγS μ EC50, U-2 OS cells) [µM] | GTPγS μ Emax (μ-opioid receptor [1]; [6]) [%] |
| --- | --- | --- | --- | --- | --- | --- | --- | --- | --- | --- | --- | --- |
| CN1CC[C@]2(C)c3cc(O)ccc3CC1C2N(C)c1ccc(CCS(N)(=O)=O)cc1 (stereo in doubt) [Compound 51, 2-(4-(((2R,6R,11S)-8-hydroxy-3,6-dimethyl-1,2,3,4,5,6-hexahydro-2,6-methanobenzo[d]azocin-11-yl)(methyl)amino)phenyl)ethanesulfonamide] | 0.00021 ± 2.1e-05 | 113 ± 2.65 | 7.83 ± 0.95 | 1.44 ± 0.44 | 100 ± 7.22 | > 20 | – | – | – | – | – | – |
| CN1CC[C@]2(C)c3cc(O)ccc3CC1[C@@H]2N1Cc2ccccc2NC1=O [Compound 91] | 0.378 ± 0.0619 | 71.3 ± 3.53 | 174 ± 25.7 | 409 ± 19.5 | 89.7 ± 5.9 | – | 2.81 ± 0.129 | 34.7 ± 5.93 | – | – | – | – |
| CN(C(=O)Nc1ccc(C#N)cc1)C1C2Cc3ccc(O)cc3[C@@]1(C)CCN2Cc1ccoc1 (stereo in doubt) [Compound 90, 3-(4-cyanophenyl)-1-((2R,6R,11S)-3-(furan-3-ylmethyl)-8-hydroxy-6-methyl-1,2,3,4,5,6-hexahydro-2,6-methanobenzo[d]azocin-11-yl)-1-methylurea] | 0.00702 ± 0.00189 | 14 ± 1 | 1.74 ± 0.45 | 5.92 ± 1.82 | 32.7 ± 5.78 | > 20 | – | 1 | – | – | – | – |
| CN(C(=O)Nc1ccc(C#N)cc1)[C@H]1C2Cc3ccc(O)cc3[C@@]1(C)CCN2CC1CC1 [Compound 80, 3-(4-cyanophenyl)-1-((6R,11R)-3-(cyclopropylmethyl)-8-hydroxy-6-methyl-1,2,3,4,5,6-hexahydro-2,6-methanobenzo[d]azocin-11-yl)-1-methylurea] | 0.0002 ± 1.3e-05 | 113 ± 3.53 | 1.19 ± 0.32 | 216 ± 38.7 | 92.4 ± 3.23 | > 20 | – | – | – | – | – | – |
| CN(C(=O)Nc1ccc(C#N)cc1)[C@H]1C2Cc3ccc(O)cc3[C@@]1(C)CCN2Cc1cccc(F)c1F [Compound 89, 3-(4-cyanophenyl)-1-((6R,11R)-3-(2,3-difluorobenzyl)-8-hydroxy-6-methyl-1,2,3,4,5,6-hexahydro-2,6-methanobenzo[d]azocin-11-yl)-1-methylurea] | – | 1.17 ± 1.01 | 9.2 ± 0.9 | > 20000 | – | > 20 | – | – | > 20 | – | – | – |
| CN(C(=O)Nc1ccc(C#N)cc1)[C@H]1C2Cc3ccc(O)cc3[C@@]1(C)CCN2CC1CCC1 [Compound 88, 3-(4-cyanophenyl)-1-((6R,11R)-3-(cyclobutylmethyl)-8-hydroxy-6-methyl-1,2,3,4,5,6-hexahydro-2,6-methanobenzo[d]azocin-11-yl)-1-methylurea] | 0.00167 ± 0.00016 | 85.7 ± 2.33 | 4.74 ± 1.55 | 7.58 ± 1.06 | 74.7 ± 1.86 | – | 0.0247 ± 0.00535 | 18.5 ± 2.84 | – | – | – | – |
| CN(C(=O)Nc1ccc(C#N)cc1)C1C2Cc3ccc(O)cc3[C@@]1(C)CCN2CCc1ccccc1 (stereo in doubt) [Compound 87, 3-(4-cyanophenyl)-1-((2R,6R,11S)-8-hydroxy-6-methyl-3-phenethyl-1,2,3,4,5,6-hexahydro-2,6-methanobenzo[d]azocin-11-yl)-1-methylurea] | 0.00208 ± 0.00012 | 99.3 ± 2.03 | 1.21 ± 0.24 | 5.29 ± 1.1 | 96.3 ± 2.96 | – | 0.024 ± 0.00194 | 10.8 ± 1.49 | – | – | – | – |
| CN1CC[C@@]2(C)c3cc(O)ccc3C[C@@H]1[C@@H]2N(C)CC1CCN(C(=O)OC(C)(C)C)CC1 [Compound 31, tert-butyl 4-((((2R,6S,11R)-8-hydroxy-3,6-dimethyl-1,2,3,4,5,6-hexahydro-2,6-methanobenzo[d]azocin-11-yl)(methyl)amino)methyl)piperidine-1-carboxylate] | 0.00041 ± 0.00038 | 94.3 ± 3.18 | 0.34 ± 0.09 | 12.3 ± 0.95 | 61 ± 3 | > 20 | – | 1 | – | – | – | – |
| CN1CC[C@]2(C)c3cc(O)ccc3CC1[C@@H]2COc1ncc([C@H](O)CO)cc1Cl [Compound 43, (1S)-1-(5-chloro-6-(((6S,11R)-8-hydroxy-3,6-dimethyl-1,2,3,4,5,6-hexahydro-2,6-methanobenzo[d]azocin-11-yl)methoxy)pyridin-3-yl)ethane-1,2-diol] | – | – | 516 ± 126 | 3390 ± 63.4 | 24.7 ± 3.28 | – | – | – | – | > 20 | – | – |
| CN1CC[C@]2(C)c3cc(O)ccc3CC1[C@H]2COc1ccc(C(N)=O)cc1 [Compound 44, 4-(((6S,11S)-8-hydroxy-3,6-dimethyl-1,2,3,4,5,6-hexahydro-2,6-methanobenzo[d]azocin-11-yl)methoxy)benzamide] | – | – | 166 ± 62.3 | 718 ± 249 | 65 ± 2.52 | – | – | 17.7 ± 1.2 | – | 0.394 ± 0.0884 | – | – |
| CN(C(=O)Nc1ccc(C#N)cc1)[C@@H]1C2Cc3ccc(O)cc3[C@@]1(C)CCN2CC1CC1 [Compound 81, 3-(4-cyanophenyl)-1-((6R,11S)-3-(cyclopropylmethyl)-8-hydroxy-6-methyl-1,2,3,4,5,6-hexahydro-2,6-methanobenzo[d]azocin-11-yl)-1-methylurea] | – | – | 36.6 ± 4.94 | 1230 ± 173 | 31.2 ± 2.87 | > 20 | – | – | – | – | – | – |
| CC(C)CC(NC(=O)N(C)C1[C@H]2Cc3ccc(O)cc3[C@]1(C)CCN2C)C(=O)O (stereo in doubt) [Compound 76, 2-(3-((2R,6S,11S)-8-hydroxy-3,6-dimethyl-1,2,3,4,5,6-hexahydro-2,6-methanobenzo[d]azocin-11-yl)-3-methylureido)-4-methylpentanoic acid] | – | – | 107 ± 1.33 | 811 ± 53 | 79.3 ± 3.48 | > 20 | – | -0.33 ± 0.67 | – | – | – | – |
| COc1ccc2c(c1)[C@@]1(C)CCN(C)C(C2)[C@]1(O)c1cccc(C(N)=O)c1 [Compound 63, 3-((6R,11S)-11-hydroxy-8-methoxy-3,6-dimethyl-1,2,3,4,5,6-hexahydro-2,6-methanobenzo[d]azocin-11-yl)benzamide] | – | – | 340 ± 90.9 | > 20000 | – | > 20 | – | – | – | – | – | – |
| CN1CC[C@]2(C)c3cc(O)ccc3C[C@@H]1[C@@H]2N(C)C(=O)c1ccccc1 [Compound 39, N-((2R,6R,11R)-8-hydroxy-3,6-dimethyl-1,2,3,4,5,6-hexahydro-2,6-methanobenzo[d]azocin-11-yl)-N-methylbenzamide] | 0.0183 ± 0.00122 | 101 ± 3.76 | 82 ± 10.4 | 321 ± 22.2 | 89.8 ± 5.39 | > 20 | – | -1 | – | – | – | – |
| CN(C(=O)/C=C/c1ccoc1)[C@@H]1[C@H]2Cc3ccc(O)cc3[C@@]1(C)CCN2CC1CC1 [Compound 77, (E)-N-((2R,6R,11S)-3-(cyclopropylmethyl)-8-hydroxy-6-methyl-1,2,3,4,5,6-hexahydro-2,6-methanobenzo[d]azocin-11-yl)-3-(furan-3-yl)-N-methylacrylamide] | – | 77.7 ± 0.88 | 4.3 ± 0.91 | 144 ± 11 | 56.5 ± 2.02 | – | – | -1 | – | > 20 | 0.029 ± 0.00086 | – |
| CN1CC[C@@]2(C)c3cc(O)ccc3C[C@@H]1[C@@H]2NCC1CCN(C(=O)OC(C)(C)C)CC1 [Compound 30, tert-butyl 4-((((2R,6S,11R)-8-hydroxy-3,6-dimethyl-1,2,3,4,5,6-hexahydro-2,6-methanobenzo[d]azocin-11-yl)amino)methyl)piperidine-1-carboxylate] | 0.0336 ± 0.00817 | – | 7.66 ± 1.96 | 270 ± 33.9 | 49.7 ± 3.67 | > 20 | – | 0.33 ± 0.67 | – | – | – | 91.70 ± 4.33 |
| COc1ccc2c(c1)[C@@]1(C)CCN(C)C(C2)[C@@H]1CNC(=O)Cc1ccc(Cl)c(Cl)c1 [Compound 75, 2-(3,4-dichlorophenyl)-N-(((6S,11S)-8-methoxy-3,6-dimethyl-1,2,3,4,5,6-hexahydro-2,6-methanobenzo[d]azocin-11-yl)methyl)acetamide] | – | 104 ± 2.67 | 185 ± 51.3 | 62.3 ± 13.7 | 112 ± 2.4 | – | – | 0.33 ± 0.67 | – | > 20 | 0.0127 ± 0.00152 | – |
| COc1ccc2c(c1)[C@@]1(C)CCN(C)C(C2)[C@@H]1c1cccc(C(N)=O)c1 [Compound 54, 3-((6S,11R)-8-methoxy-3,6-dimethyl-1,2,3,4,5,6-hexahydro-2,6-methanobenzo[d]azocin-11-yl)benzamide] | – | – | 259 ± 33.6 | > 20000 | – | > 20 | – | – | – | – | – | – |
